In patent publication US7183108B1, “Selection and uses of lactic acid bacteria strains modulating non-specific immunity” (Compagnie Gervais Danone, priority 1998, dated 2007):

How the values were obtained:
Type in all cases: cell-based, human
Caco-2 cells [1] = experiment: Production of TNF-α and IL-1β by Caco-2 cells (ELISA of culture supernatants); settings: Caco-2 preactivated with CYTOMIX, with total extract of L. casei; L-NAME 1 mM or PDTC 10 pM (FIG. 3)
Experimental: (§1) Each of the 2 lines was seeded at 2×10^6 cells/well in 24-well plates, in DMEM medium supplemented with 5% of SVF, with 100 U/ml of penicillin, with 100 μg/ml of streptomycin and with 2 mM of L-glutamine. The cells are then incubated for 24 hours in the presence of CYTOMIX, and then for a further 24 hours in the presence of the total extracts of L. casei. For certain experiments, L-NAME (1 mM) or an inhibitor of the NFκB transduction pathway (PDTC: 10 pM) are added at the same time as the bacterial extracts. The culture supernatants are then recovered and the cytokine concentration thereof is determined by ELISA.

HT-29 cells [2] = experiment: Production of TNF-α and IL-1β by HT-29 cells (ELISA of culture supernatants); settings: HT-29 preactivated with CYTOMIX, with total extract of L. casei; L-NAME 1 mM or PDTC 10 pM (FIG. 3)
Experimental: as §1

Caco-2 cells [3] = experiment: Production of nitric oxide (nitrite, GRIESS method) by Caco-2 colon epithelial cell line; settings: Caco-2, L-NAME 1 mM, in the presence or absence of total extract of L. casei (3% v/v) (FIG. 2)
Experimental: (§2) Each of the 2 lines was seeded at 2×10^5 cells/well in 96-well plates, in DMEM medium supplemented with 5% of SVF, with 100 U/ml of penicillin, with 100 μg/ml of streptomycin and with 2 mM of L-glutamine.
(§3) The cells are pre-incubated for 24 hours at 37° C., 5% CO2, in the presence of CYTOMIX (IL-1β: 10 ng/ml, TNF-α: 25 ng/ml and γ-IFN: 10^3 U/ml mixture). The cells are then incubated for a further 24 hours in the presence or absence of increasing amounts of total extracts of L. casei (in % vol/vol).
(§4) After incubation, the culture supernatants are recovered and frozen, before determining the nitrite concentration. For certain experiments, L-NAME (1 mM), which is an analogue of L-arginine and constitutes a competitive inhibitor specific for NO-synthases, is added at the same time as the extracts of L. casei.
(§5) The amount of NO produced is evaluated by assaying, in the culture supernatants, the stable derivatives of this radical after reaction thereof in aqueous medium: the nitrites and nitrates. The nitrates are, initially, reduced to nitrites with bacteria expressing nitrate reductase, and the nitrites are then assayed using the GRIESS method. […] The absorbances are then determined at 540 nm using a MULTISCAN MCC340 reader (LABSYSTEM).

HT-29 cells [4] = experiment: Production of nitric oxide (nitrite, GRIESS method) by HT-29 colon epithelial cell line; settings: HT-29, L-NAME 1 mM, in the presence or absence of total extract of L. casei (3% v/v) (FIG. 2)
Experimental: as §2, §3, §4, §5

COC(=O)[C@@H](N)CCCNC(=N)N[N+](=O)[O-] [L-NAME]
inhibited: effect of inhibitor on production of TNF-α (Caco-2 cells [1]) | effect of inhibitor on production of TNF-α (HT-29 cells [2]) | effect on CYTOMIX-induced production of NO (Caco-2 cells [3]) | effect on CYTOMIX-induced production of NO (HT-29 cells [4])

S=C(S)N1CCCC1 [PDTC]
inhibited: effect of inhibitor on production of TNF-α (Caco-2 cells [1]) | effect of inhibitor on production of TNF-α (HT-29 cells [2])
